The values that follow come from patent publication US12187723B2 (BRISTOL-MYERS SQUIBB COMPANY, priority 2019, dated 2025).

For this experiment, the target named is T1, human TLR8 (Homo sapiens, UniProt Q9NR97).
T1 construct: host or cells: HEK-Blue cells
T1 sequence (Q9NR97 27-1041): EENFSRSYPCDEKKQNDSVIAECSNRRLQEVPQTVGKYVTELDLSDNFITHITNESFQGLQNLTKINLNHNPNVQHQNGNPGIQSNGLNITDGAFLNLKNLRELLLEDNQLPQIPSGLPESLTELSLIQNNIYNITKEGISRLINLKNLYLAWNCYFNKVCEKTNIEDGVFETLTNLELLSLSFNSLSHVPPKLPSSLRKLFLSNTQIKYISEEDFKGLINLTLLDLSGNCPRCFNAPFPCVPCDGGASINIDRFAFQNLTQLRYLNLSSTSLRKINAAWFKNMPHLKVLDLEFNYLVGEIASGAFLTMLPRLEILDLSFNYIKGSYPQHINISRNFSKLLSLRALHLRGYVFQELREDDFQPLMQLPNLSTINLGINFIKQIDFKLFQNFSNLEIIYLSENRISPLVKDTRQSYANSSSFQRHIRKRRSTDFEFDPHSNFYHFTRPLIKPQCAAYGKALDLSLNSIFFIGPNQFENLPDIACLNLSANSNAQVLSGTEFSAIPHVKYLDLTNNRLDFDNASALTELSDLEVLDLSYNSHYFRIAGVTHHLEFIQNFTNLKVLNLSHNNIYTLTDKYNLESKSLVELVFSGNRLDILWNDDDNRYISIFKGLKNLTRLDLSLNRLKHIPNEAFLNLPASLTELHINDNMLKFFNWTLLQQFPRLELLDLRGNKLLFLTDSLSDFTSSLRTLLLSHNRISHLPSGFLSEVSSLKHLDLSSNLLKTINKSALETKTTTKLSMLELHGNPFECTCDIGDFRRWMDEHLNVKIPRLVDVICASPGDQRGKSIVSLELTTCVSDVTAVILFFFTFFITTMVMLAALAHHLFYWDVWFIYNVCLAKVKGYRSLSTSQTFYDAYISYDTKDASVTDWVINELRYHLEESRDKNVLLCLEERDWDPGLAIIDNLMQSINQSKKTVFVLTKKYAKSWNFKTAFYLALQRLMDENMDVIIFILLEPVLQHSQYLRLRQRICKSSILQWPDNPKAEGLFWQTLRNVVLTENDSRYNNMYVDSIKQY
Nature of the experiment: TLR8 inhibition reporter assay (HEK-Blue SEAP). It is filed as cell-based. The settings on record: HEK-Blue cells overexpressing human TLR8, R848 15.9 μM, 22 hour incubation. In short, it runs like this: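 Human TLR7/8/9 HEK-Blue reporter lines; dose range 0.05 nM–50 μM; 30 min RT preincubation; stimulus gardiquimod 7.5 μM / R848 15.9 μM / ODN2006 5 nM respectively; 22 h, 37 °C; SEAP detected colorimetrically.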
In general terms: In a reporter assay the amount or activity of a reporter protein is the signal.
In general, IC50 refers to the point on the concentration scale where inhibition reaches its midpoint. Read a low IC50 as inhibition by little substance. In turn, `CCc1cc2c(cc1-c1cc(OC)c3ncnn3c1)[nH]c(=O)n2[C@@H]1CCCN(CC(C)(C)C)C1` [Example 180, (R)-6-ethyl-5-(8-methoxy-[1,2,4]triazolo[1,5-a]pyridin-6-yl)-1-(1-neopentylpiperidin-3-yl)-1,3-dihydro-2H-benzo[d]imidazol-2-one] gave an IC50 of 4.29 nM. As for `Cc1cc2c(cc1-c1cc(C)c3ncnn3c1)[nH]c(=O)n2[C@@H]1CCCN(C)C1` [Example 15, (R)-6-methyl-5-(8-methyl-[1,2,4]triazolo[1,5-a]pyridin-6-yl)-1-(1-methylpiperidin-3-yl)-1,3-dihydro-2H-benzo[d]imidazol-2-one], the figure is 22.9 nM; as for `CCC(CC)CN[C@H]1CC[C@@H](n2c(=O)[nH]c3cc(-c4cn5ncnc5c(C)c4C)c(C(C)C)cc32)CC1` [Example 198], 0.15 nM. The compound `COc1cc(-c2cc3[nH]c(=O)n(C4CCN(CCS(C)(=O)=O)CC4)c3cc2C(C)C)cn2ncnc12` [Example 224, 6-isopropyl-5-(8-methoxy-[1,2,4]triazolo[1,5-a]pyridin-6-yl)-1-(1-(2-(methylsulfonyl)ethyl)piperidin-4-yl)-1,3-dihydro-2H-benzo[d]imidazol-2-one] returned an IC50 of 25.5 nM.

Take `COc1c(C)c(-c2cc3[nH]c(=O)n(C4CCC(N5CCC(F)(F)CC5)CC4)c3cc2C(C)C)cn2ncnc12` (single isomer, unassigned) [Example 230, 1-(4-(4,4-difluoropiperidin-1-yl)cyclohexyl)-6-isopropyl-5-(8-methoxy-7-methyl-[1,2,4]triazolo[1,5-a]pyridin-6-yl)-1,3-dihydro-2H-benzo[d]imidazol-2-one]: half-maximal inhibition (IC50) was put at 5.49 nM. As for `CCc1cc2c(cc1-c1cc(OC)c3ncnn3c1)[nH]c(=O)n2[C@@H]1CCCN(C2CCOC2)C1` (stereo partly drawn) [Example 213, 6-ethyl-5-(8-methoxy-[1,2,4]triazolo[1,5-a]pyridin-6-yl)-1-((3R)-1-(tetrahydrofuran-3-yl)piperidin-3-yl)-1,3-dihydro-2H-benzo[d]imidazol-2-one], the figure is 4.62 nM; as for `CCc1cc2c(cc1-c1cc(OC)c3ncnn3c1)[nH]c(=O)n2[C@@H]1CCCN(CC(CC)CC)C1` [Example 178, (R)-6-ethyl-1-(1-(2-ethylbutyl)piperidin-3-yl)-5-(8-methoxy-[1,2,4]triazolo[1,5-a]pyridin-6-yl)-1,3-dihydro-2H-benzo[d]imidazol-2-one], 2.62 nM; as for `CCN1CCC[C@H](n2c(=O)[nH]c3cc(-c4cc(C)c5ncnn5c4)c(C)cc32)C1` [Example 12, (S)-1-(1-ethylpiperidin-3-yl)-6-methyl-5-(8-methyl-[1,2,4]triazolo[1,5-a]pyridin-6-yl)-1,3-dihydro-2H-benzo[d]imidazol-2-one], 92.5 nM. Next, `COc1cc(-c2cc3[nH]c(=O)n([C@H]4CC[C@@H](NC(C)C)CC4)c3cc2C(C)C)cn2ncnc12` [Example 192, 6-isopropyl-1-((1s,4s)-4-(isopropylamino)cyclohexyl)-5-(8-methoxy-[1,2,4]triazolo[1,5-a]pyridin-6-yl)-1,3-dihydro-2H-benzo[d]imidazol-2-one]: 0.44 nM. Compound `COc1cc(-c2cc3[nH]c(=O)n(C4CCC(N5CCC6(CC5)COC6)CC4)c3cc2C(C)C)cn2ncnc12` (centres unmarked) [Example 239, 1-(4-(2-oxa-7-azaspiro[3.5]nonan-7-yl)cyclohexyl)-6-isopropyl-5-(8-methoxy-[1,2,4]triazolo[1,5-a]pyridin-6-yl)-1,3-dihydro-2H-benzo[d]imidazol-2-one] displayed an IC50 of 0.21 nM. On to `CCc1cc2c(cc1-c1cc(OC)c3ncnn3c1)[nH]c(=O)n2[C@H]1CC[C@@H](N(CC)CC)CC1` [Example 169, 1-((1s,4s)-4-(diethylamino)cyclohexyl)-6-ethyl-5-(8-methoxy-[1,2,4]triazolo[1,5-a]pyridin-6-yl)-1,3-dihydro-2H-benzo[d]imidazol-2-one], for which the IC50 was found to be 0.74 nM. Compared with the last compound, the IC50 is about 3.5-fold higher.
